For series [1], the target named is HER2 exon 20 insertion (V777_G778ins > CG) enzyme (Homo sapiens, UniProt P04626, INS777CG). Kind of series: Kinase assay (HTRF KinEASE TK), HER2 exon 20 insertion. It is filed as biochemical. The source says: (§1) To detect the inhibitory effect of compounds on EGFR WT, EGFR (D770_N771insNPG), ERBB2 (V777_G778ins>CG), EGFR T790M/L858R enzyme activities
(§2) EGFR WT (Invitrogen, Cat. No. PR7295B), EGFR [L858R] (Invitrogen, Cat. No. PR7447A), EGFR [d746-750] (Invitrogen, Cat. No. PV6179), ATP (Sigma, Cat. No. A7699-1G), DMSO (Sigma, Cat. No. D2650), DTT (Sigma, Cat. No. 43815), 384-well plate, compound dilution plate (Greiner, Cat. No. 781280), 384-well plate, test plate (Perkin Elmer, Cat. No. 6007299), HTRF KinEASE TK Kit (Cisbio, Cat. No. 62TK0PEB), magnesium chloride (Sigma, Cat. No. M1028), Orthovanadate (Sigma, Cat. No. 56508), BSA (Sigma, Cat. No. A7030), HEPES (Life technology, Cat. No. 11344-041).
(§3) The final test concentrations of the test compounds ranged from 10 μM to 0.17 nM in 3-fold gradient dilutions at 11 concentrations.
(§4) The preparation of the buffer, 50 mM HEPES (pH 7.5), 0.01% BSA, 5 mM MgCl2, and 0.1 mM Orthovanadate were contained in the buffer. After the preparation of the buffer, the enzyme and substrate were mixed with pre-diluted prepared compounds of different concentrations, and the mixture was placed at room temperature for 15 minutes. […] After the reaction was completed, the antibody was added to the assay, incubated at room temperature for 60 minutes and then detected by Envision (plate reading instrument), and data were collected. […]

Series [2] is described as follows: Compound stability test in plasma (dog). It is filed as in vitro ADME, Beagle. The protocol: (§5) In this study, mouse, SD rat, Beagle, cynomolgus monkey and human plasma were used as materials to investigate the stability of the tested compounds in the plasma of the above five species. Propantheline, Enalapril, Bisacodyl and Procaine were used as control compounds.
(§6) The experimental conditions for the test compounds were as follows: • test concentration: 2 μM (DMSO ≤0.5%); • incubation times: 0, 10, 30, 60 and 120 minutes; • frozen plasma (from multiple species) was used in the test system; • incubation conditions: 37° C.
(§7) The mixed frozen plasma was thawed in a 37° C. water bath prior to the experiment. Plasma was centrifuged at 4000 rpm for 5 minutes and cleared if there was a clot. The pH will be adjusted to 7.4±0.1 if required.
(§8) The intermediate solution of 1 mM compound and positive control was prepared by diluting 10 mM stock solution with 90 μL of dimethyl sulfoxide. 100 μM solution was prepared by diluting 20 μL of intermediate solution (1 mM) with 180 μL of 45% methanol/water.
(§9) 2 μL of 100 μM solution was added to 98 μL of blank plasma to achieve a final concentration of 2 μM (in duplicate) of the sample, and the sample was incubated in a 37° C. water bath. At each time point (0, 10, 30, 60 and 120 min), 400 μL of termination solution (200 ng/mL toluenesulfonylurea and 200 ng/mL labetalol, 50% ACN/MeOH) was added to precipitate the proteins and mixed thoroughly. […]

Series [3] in a line: Compound stability test in plasma (monkey). It is filed as in vitro ADME, cynomolgus monkey. As to the method: as §5, §6, §7, §8, §9
Series [4] is described as follows: Compound stability test in plasma (human). Format: in vitro ADME. The protocol: as §5, §6, §7, §8, §9
The target of series [5] is BaF3 ERBB2 A775_G776 ins YVMA (Homo sapiens, UniProt P04626, DUP772-775, cells depend on it). As to the kind of experiment: Anti-proliferation against Ba/F3 exon 20 insertion mutant cells (ERBB2 YVMA). Format: cell-based, mouse. Conditions: CTG, 72 hours, read-out: Mutant cells IC50 (anti-proliferation). The source says: RPMI1640 medium was purchased from Hyclone, FBS fetal bovine serum was purchased from GBICO, and trypsin-EDTA were both purchased from Giboco. DPBS was purchased from Corning, penicillin/streptomycin solution was purchased from Hyclone, and Cell-Titer Glo reagent was purchased from Promega (Cat. No. G7572). Ba/F3 EGFR-D770_N771insSVD, Ba/F3 EGFR-H773_V774insNPH, Ba/F3 EGFR-V769_D770insASV, BaF3 ERBB2 A775_G776 ins YVMA, the cell lines were constructed by Beijing Kang Yuan Bochuang Biotechnology Co., Ltd. Plate reading instrument: Envision (PerkinElmer).
Chain of BaF3 ERBB2 A775_G776 ins YVMA (P04626 with tags, fused parts or gaps DUP772-775): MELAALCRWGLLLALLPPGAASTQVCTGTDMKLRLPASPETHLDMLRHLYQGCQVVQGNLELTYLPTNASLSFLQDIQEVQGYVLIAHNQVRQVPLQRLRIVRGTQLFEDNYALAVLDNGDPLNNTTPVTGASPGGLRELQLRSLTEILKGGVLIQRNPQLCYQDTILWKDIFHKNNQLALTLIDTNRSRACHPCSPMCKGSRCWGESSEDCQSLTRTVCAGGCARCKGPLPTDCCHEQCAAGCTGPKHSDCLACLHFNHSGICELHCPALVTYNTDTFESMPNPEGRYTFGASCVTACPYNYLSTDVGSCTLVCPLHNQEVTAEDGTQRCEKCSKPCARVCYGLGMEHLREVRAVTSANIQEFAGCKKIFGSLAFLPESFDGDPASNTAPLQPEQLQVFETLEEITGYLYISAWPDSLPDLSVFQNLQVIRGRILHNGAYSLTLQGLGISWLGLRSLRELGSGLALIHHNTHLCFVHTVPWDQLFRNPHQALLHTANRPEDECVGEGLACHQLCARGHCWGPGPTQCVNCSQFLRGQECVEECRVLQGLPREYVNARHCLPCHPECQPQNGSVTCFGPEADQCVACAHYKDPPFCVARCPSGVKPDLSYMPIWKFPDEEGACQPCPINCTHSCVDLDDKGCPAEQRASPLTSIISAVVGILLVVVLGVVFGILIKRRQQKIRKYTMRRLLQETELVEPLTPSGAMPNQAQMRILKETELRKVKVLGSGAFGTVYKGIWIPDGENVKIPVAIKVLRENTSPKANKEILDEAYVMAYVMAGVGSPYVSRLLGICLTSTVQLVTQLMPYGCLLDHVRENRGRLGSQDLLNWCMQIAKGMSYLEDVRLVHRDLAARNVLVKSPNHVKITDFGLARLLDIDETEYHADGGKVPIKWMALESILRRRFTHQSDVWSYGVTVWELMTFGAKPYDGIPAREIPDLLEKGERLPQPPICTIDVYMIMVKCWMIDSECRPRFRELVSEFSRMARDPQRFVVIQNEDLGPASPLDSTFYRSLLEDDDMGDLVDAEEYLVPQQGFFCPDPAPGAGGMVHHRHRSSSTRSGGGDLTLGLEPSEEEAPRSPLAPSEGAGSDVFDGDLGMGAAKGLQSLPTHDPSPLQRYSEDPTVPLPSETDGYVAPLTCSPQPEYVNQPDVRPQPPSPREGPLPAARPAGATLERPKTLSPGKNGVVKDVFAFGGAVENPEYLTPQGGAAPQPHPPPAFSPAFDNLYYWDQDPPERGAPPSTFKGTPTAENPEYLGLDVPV
Cells in logarithmic growth phase were harvested and cell counts were performed using a […]. Cell viability was detected by the Taipan Blue rejection assay. The cell concentration was adjusted; the cell suspension was added to a 96-well plate separately. Cells in 96-well plates were incubated overnight at 37° C., 5% CO2, and 95% humidity. […] The cell plate was placed at room temperature to stabilize the cold light signal, and the cold light values were read. The data were analyzed using GraphPad Prism 7.0 software, and a nonlinear S-curve regression was used to fit the data to derive the dose-effect curve from which the IC50 values were calculated. […]

In series [6] the target is T1, Wild-type EGFR enzymes (Homo sapiens, UniProt P00533).
T1 construct: purchased Invitrogen PR7295B
T1 sequence (P00533 25-1210): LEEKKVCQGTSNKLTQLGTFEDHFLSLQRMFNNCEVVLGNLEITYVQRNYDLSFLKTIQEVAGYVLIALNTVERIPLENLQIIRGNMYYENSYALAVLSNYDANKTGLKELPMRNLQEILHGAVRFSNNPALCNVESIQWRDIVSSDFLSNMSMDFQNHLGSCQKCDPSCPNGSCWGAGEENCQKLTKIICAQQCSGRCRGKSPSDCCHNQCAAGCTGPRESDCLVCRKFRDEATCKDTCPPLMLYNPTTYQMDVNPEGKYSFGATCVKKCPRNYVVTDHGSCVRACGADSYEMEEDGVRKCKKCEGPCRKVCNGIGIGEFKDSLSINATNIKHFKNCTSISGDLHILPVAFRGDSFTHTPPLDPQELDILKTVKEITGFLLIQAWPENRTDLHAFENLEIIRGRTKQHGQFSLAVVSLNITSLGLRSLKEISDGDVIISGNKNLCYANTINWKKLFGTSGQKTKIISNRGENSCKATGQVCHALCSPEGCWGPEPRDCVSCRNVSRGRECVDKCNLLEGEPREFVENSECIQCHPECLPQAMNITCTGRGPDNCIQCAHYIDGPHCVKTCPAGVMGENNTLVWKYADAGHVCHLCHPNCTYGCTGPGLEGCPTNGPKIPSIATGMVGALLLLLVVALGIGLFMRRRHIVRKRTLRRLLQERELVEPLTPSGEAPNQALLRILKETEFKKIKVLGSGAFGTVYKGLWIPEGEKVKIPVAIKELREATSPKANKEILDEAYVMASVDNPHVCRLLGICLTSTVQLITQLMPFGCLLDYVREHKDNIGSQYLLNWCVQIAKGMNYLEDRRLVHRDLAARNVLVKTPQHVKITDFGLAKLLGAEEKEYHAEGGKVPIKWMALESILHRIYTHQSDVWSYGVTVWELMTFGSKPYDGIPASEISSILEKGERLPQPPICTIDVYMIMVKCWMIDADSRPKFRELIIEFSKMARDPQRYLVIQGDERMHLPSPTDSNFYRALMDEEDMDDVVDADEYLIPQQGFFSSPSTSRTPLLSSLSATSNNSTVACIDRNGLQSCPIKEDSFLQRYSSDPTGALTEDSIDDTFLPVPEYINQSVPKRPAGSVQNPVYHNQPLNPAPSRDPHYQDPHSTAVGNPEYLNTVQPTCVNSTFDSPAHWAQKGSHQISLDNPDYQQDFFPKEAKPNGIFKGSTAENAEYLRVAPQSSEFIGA
Kind of series: Kinase assay (HTRF KinEASE TK), EGFR WT. Format: biochemical. Conditions: read-out: Enzyme IC50.
Source text: as §1, §2, §3, §4

The mark [7] stands for this setting: pH 7.4, 37° C., read-out: In vitro plasma half-life T1/2.

Chain of HER2 exon 20 insertion (V777_G778ins > CG) enzyme (P04626 with tags, fused parts or gaps INS777CG limits assumed): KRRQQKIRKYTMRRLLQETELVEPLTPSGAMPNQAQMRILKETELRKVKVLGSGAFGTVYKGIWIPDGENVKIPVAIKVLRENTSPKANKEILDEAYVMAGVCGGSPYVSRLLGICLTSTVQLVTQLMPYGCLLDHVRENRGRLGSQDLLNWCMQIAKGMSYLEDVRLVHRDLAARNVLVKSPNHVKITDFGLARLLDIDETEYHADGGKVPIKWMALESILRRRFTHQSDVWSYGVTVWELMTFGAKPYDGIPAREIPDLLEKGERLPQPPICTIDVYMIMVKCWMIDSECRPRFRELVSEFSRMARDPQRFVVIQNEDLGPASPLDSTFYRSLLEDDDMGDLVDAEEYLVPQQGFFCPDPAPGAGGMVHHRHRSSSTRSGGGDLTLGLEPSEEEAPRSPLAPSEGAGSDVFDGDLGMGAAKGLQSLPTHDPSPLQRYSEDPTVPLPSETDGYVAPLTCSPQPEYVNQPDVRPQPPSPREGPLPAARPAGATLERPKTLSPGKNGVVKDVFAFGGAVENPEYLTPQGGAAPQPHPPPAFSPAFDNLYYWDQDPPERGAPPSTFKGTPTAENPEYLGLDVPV

For `C=CC(=O)Nc1cc(Nc2ncc(C(=O)OC(C)C)c(-c3cn(OC)c4ccccc34)n2)c(OC)cc1N(C)CCN(C)C.CS(=O)(=O)O` [Compound 1], the half-maximal inhibitory concentration (IC50) is 1.86 nM in series [1] and 0.39 nM in series [6]. Also, the “In vitro plasma stability (Residual percentage)” value is recorded as 101.7% in series [2] (120 minutes, 2 μM, 37° C.); 93.7% in series [3] (120 minutes, 2 μM, 37° C.); 19% in series [4] (120 minutes, 2 μM, 37° C.). The half-life at 2 µM in series [2] (beagle, pH 7.4, 37° C., read-out: In vitro plasma half-life T1/2) was more than 4.82 h; in series [3] (setting [7]), more than 4.82 h; in series [4] (setting [7]) it was 0.86 h. Besides, the GI50 in series [5] was found to be 37 nM.

The record behind these values is patent US11530196B2, “Pyrimidine compound acting on EGFR and ERBB2” (CHINA RESOURCES PHARMACEUTICAL HOLDINGS COMPANY LIMITED, priority 2019, dated 2022).
